Reference: ChEMBL document CHEMBL6109155, “Discovery of Phenylacylpiperidine as Novel sEH Inhibitors through Scaffold Hopping of Natural Stilbene” (J Med Chem, 2025)
The source made the active and inactive calls. No cut-off for these calls is given here.

Columns and labels:
[1] = tested on: Mus musculus; experiment: Anti-inflammatory activity in CD-1 mouse model of cerulein-induced acute pancreatitis assessed as decrease in neutrophil infiltration in pancreas at 10 mg/kg, ip drug administered at 30 mins and 2.5 hrs post-first cerulein injection and measured after 6 hrs post-first cerulein injection by H and E staining based analysis; assay type: functional, organism-based; details: time 3.5-5.5 hrs
[2] = tested on: Rattus norvegicus; experiment: Anti-inflammatory activity in Sprague-Dawley rat model of CFA-induced rheumatoid arthritis assessed as improvement in body weight at 10 mg/kg, po administered daily measured for 19 days; assay type: functional, organism-based; details: time 19.0 day
[3] = tested on: Mus musculus; experiment: Anti-inflammatory activity in BALB/c mouse model of carrageenan-induced paw edema assessed as inhibition of paw swelling at 1 mg/kg, po measured after 6 hrs relative to control; assay type: functional
[4] = In vivo inhibition of liver sEH enzyme activity in Sprague-Dawley rat model of CFA-induced rheumatoid arthritis at 10 mg/kg, po administered daily measured after 19 days relative to control; assay type: functional; details: 456 h, time 19 day
[5] = tested on: Mus musculus; experiment: Effect on ratio of 5,6-EET to DHET plasma levels in BALB/c mouse model of carrageenan-induced paw edema at 10 mg/kg, po measured after 6 hrs; assay type: functional, organism-based
[6] = tested on: Mus musculus; experiment: Anti-inflammatory activity in BALB/c mouse model of carrageenan-induced paw edema at 20 mg/kg, po measured for 0.5 to 6 hrs; assay type: functional, organism-based; details: time 0.5-6 hrs
[7] = tested on: Mus musculus; experiment: Anti-inflammatory activity in BALB/c mouse model of carrageenan-induced paw edema assessed as inhibition of paw swelling at 20 mg/kg, po measured up to 6 hrs relative to control; assay type: functional
[8] = tested on: Mus musculus; experiment: Anti-inflammatory activity in BALB/c mouse model of carrageenan-induced paw edema assessed as increase in ratio of 11,12-EET to DHET plasma levels at 10 mg/kg, po measured after 6 hrs relative to control; assay type: functional
[9] = Volume of distribution in Sprague-Dawley rat at 5 mg/kg, iv measured for 24 hrs; assay type: ADME, organism-based; details: in vivo
[10] = tested on: Rattus norvegicus; experiment: Anti-inflammatory activity in Sprague-Dawley rat model of CFA-induced rheumatoid arthritis assessed as decrease in plasma IL-6 level at 10 mg/kg, po administered daily measured after 19 days relative to control; assay type: functional; parameters: scale not given: the % may be the effect or the level left; details: time 19 day
[11] = tested on: Mus musculus; experiment: Anti-inflammatory activity in BALB/c mouse model of carrageenan-induced paw edema assessed as increase in plasma 14,15-EET levels at 10 mg/kg, po measured after 6 hrs relative to control; assay type: functional
[12] = AUC (0 to 24 hrs) in plasma of C57BL/6J mouse at 20 mg/kg, po measured for 24 hrs; assay type: ADME, organism-based
[13] = Clearance in Sprague-Dawley rat at 20 mg/kg, po measured for 24 hrs; assay type: ADME, organism-based; details: in vivo
[14] = tested on: Rattus norvegicus; experiment: Anti-inflammatory activity in Sprague-Dawley rat model of CFA-induced rheumatoid arthritis assessed as BS/BV value at 10 mg/kg, po administered daily measured after 19 days by micro-CT analysis (reference value: 17.147 %); assay type: functional; details: time 19 day
[15] = Ratio of AUC (0 to 24 hrs) in kidney to plasma in C57BL/6J mouse at 20 mg/kg, po measured for 24 hrs; assay type: ADME, organism-based; details: kidney and plasma, read-out: Ratio AUC
[16] = tested on: Mus musculus; experiment: Anti-inflammatory activity in BALB/c mouse model of carrageenan-induced paw edema assessed as inhibition of paw swelling at 20 mg/kg, po measured for 2 hrs relative to control; assay type: functional
[17] = tested on: Mus musculus; experiment: Anti-inflammatory activity in BALB/c mouse model of carrageenan-induced paw edema assessed as increase in ratio of 8,9-EET to DHET plasma levels at 10 mg/kg, po measured after 6 hrs relative to control; assay type: functional
[18] = tested on: Mus musculus; experiment: Anti-inflammatory activity in CD-1 mouse model of cerulein-induced acute pancreatitis assessed as decrease in plasma TNF-alpha level at 10 mg/kg, ip drug administered at 30 mins and 2.5 hrs post-first cerulein injection and measured after 6 hrs post-first cerulein injection; assay type: functional, organism-based; details: time 3.5-5.5 hrs
[19] = biological target: T1, Bifunctional epoxide hydrolase 2 (Mus musculus, UniProt P34914); experiment: biochemical
T1 sequence (P34914 whole entry): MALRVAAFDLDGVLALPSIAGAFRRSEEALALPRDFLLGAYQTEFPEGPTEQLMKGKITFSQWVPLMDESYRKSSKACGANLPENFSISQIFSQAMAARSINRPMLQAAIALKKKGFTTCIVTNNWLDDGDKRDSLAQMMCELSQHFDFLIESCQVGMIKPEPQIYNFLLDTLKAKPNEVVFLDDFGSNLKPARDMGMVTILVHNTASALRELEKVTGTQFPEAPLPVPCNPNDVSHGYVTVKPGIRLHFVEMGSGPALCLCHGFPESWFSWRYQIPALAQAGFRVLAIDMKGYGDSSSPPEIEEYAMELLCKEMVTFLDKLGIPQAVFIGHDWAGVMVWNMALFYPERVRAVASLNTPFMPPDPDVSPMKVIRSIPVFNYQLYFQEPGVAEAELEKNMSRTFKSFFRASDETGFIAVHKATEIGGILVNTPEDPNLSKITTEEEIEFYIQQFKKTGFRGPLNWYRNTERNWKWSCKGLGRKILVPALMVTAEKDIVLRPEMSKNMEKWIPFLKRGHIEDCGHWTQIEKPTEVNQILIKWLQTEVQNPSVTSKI
Description: Inhibition of C57BL/6J mouse brain sEH using 14,15-EET as substrate preincubated for 15 mins followed by substrate addition by HPLC-MS analysis

[20] = tested on: Mus musculus; experiment: Anti-inflammatory activity in BALB/c mouse model of carrageenan-induced paw edema assessed as inhibition of paw swelling at 20 mg/kg, po measured for 6 hrs relative to control; assay type: functional
[21] = biological target: Cytochrome P450 2C19 (Homo sapiens, UniProt P33261); experiment: Inhibition of CYP2C19 in human liver microsomes preincubated for 10 mins followed by NADPH addition measured after 3.5 mins by LC-MS/MS analysis; assay type: ADME, Microsome
[22] = tested on: RAW264.7; experiment: Anti-inflammatory activity in LPS-indeced mouse RAW264.7 cells assessed as reduction in TNF-alpha level at 10 uM preincubated for 1 hr followed by LPS addition measured after 24 hrs by ELISA; assay type: functional, cell-based; details: time 25.0 hrs
[23] = tested on: Mus musculus; experiment: Anti-inflammatory activity in BALB/c mouse model of carrageenan-induced paw edema assessed as increase in plasma 11,12-EET levels at 10 mg/kg, po measured after 6 hrs relative to control; assay type: functional
[24] = tested on: Mus musculus; experiment: Anti-inflammatory activity in CD-1 mouse model of cerulein-induced acute pancreatitis assessed as decrease in pancreatic edema at 10 mg/kg, ip drug administered at 30 mins and 2.5 hrs post-first cerulein injection and measured after 6 hrs post-first cerulein injection by H and E staining based analysis; assay type: functional, organism-based; details: time 3.5-5.5 hrs
[25] = Cmax in liver of C57BL/6J mouse at 20 mg/kg, po measured for 24 hrs; assay type: ADME, organism-based
[26] = Tmax in Sprague-Dawley rat at 5 mg/kg, iv measured for 24 hrs; assay type: ADME, organism-based; details: in vivo
[27] = Cmax in brain of C57BL/6J mouse at 20 mg/kg, po measured for 24 hrs; assay type: ADME, organism-based
[28] = tested on: Rattus norvegicus; experiment: Anti-inflammatory activity in Sprague-Dawley rat model of CFA-induced rheumatoid arthritis assessed as improvement in joint tissue structure at 10 mg/kg, po administered daily measured after 19 days by H and E staining based analysis; assay type: functional, organism-based; details: time 19.0 day

Cytochrome P450 2C19, sequence (P33261 whole entry): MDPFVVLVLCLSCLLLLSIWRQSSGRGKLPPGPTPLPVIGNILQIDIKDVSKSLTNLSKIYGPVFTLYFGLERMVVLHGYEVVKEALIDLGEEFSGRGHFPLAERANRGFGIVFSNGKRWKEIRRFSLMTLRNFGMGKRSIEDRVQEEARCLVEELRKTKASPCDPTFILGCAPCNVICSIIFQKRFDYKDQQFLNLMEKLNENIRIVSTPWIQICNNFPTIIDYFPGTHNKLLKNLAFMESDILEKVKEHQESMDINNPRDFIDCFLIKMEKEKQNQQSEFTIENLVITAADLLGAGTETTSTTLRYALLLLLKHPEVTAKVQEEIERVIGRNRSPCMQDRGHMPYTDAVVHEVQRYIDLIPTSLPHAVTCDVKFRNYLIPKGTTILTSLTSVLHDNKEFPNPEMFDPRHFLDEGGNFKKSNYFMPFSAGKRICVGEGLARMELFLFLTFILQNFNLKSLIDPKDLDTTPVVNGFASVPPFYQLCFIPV

## COc1cc(CC(=O)N2CCC(NC(=O)NCc3ccc(OC(F)(F)F)cc3)CC2)cc(OC)c1
[1]
  Activity: Active
[2]
  Activity: Active
[3]
  inhibition in vivo at 1 mg/kg: 22%
[4]
  inhibition in vivo at 10 mg/kg: 24.7%
[5]
  Activity: No effect
[6]
  Activity: Active
[7]
  inhibition in vivo at 20 mg/kg: 44.6%
[8]
  Activity: 362%
[9]
  Vd: 1.39 L/kg
[10]
  Activity: 60%
[11]
  Activity: 128%
[12]
  AUC(0-t) at 24 h: 532 ng·h/mL
[13]
  CL/F: 470 mL/min/kg
[14]
  Activity: 11.923%
[15]
  Kp at 24 h: 32.4
[16]
  inhibition in vivo at 20 mg/kg: 44.6%
[17]
  Activity: 355%
[18]
  Activity: Active
[19]
  IC50: 0.00051 µM
[20]
  inhibition in vivo at 20 mg/kg: 38.1%
[21]
  IC50: 9.5 µM
[22]
  Activity: Active
[23]
  Activity: 85.4%
[24]
  Activity: Active
[25]
  Cmax: 3230 ng/g
[26]
  Tmax: 4.8 min
[27]
  Cmax: 27.9 ng/g
[28]
  Activity: Active
